Activity calls are given as the source filed them. No cut-off for these calls is given here.
What was measured:
NIH3T3 = test: Antiproliferative activity against mouse NIH3T3 cells assessed as cell growth inhibition incubated for 24 to 72 hrs by CCK-8 assay; assay type: functional, cell-based
Mus musculus [1] = species on record: Mus musculus; test: Antifibrotic activity against bleomycin-induced C57BL/6 mouse lung fibrosis model assessed as reduction in F4/80+CD11b+ macrophage in lung incubated for 30 mins by flow cytometry analysis ( Rvb = 17.96%); assay type: functional; parameters: scale not given: the % may be the effect or the level left; details: 0.5 h
Mus musculus [2] = species on record: Mus musculus; test: Antifibrotic activity against bleomycin-induced C57BL/6 mouse lung fibrosis model assessed as reduction in CD4-CD69+ T cell in lung incubated for 30 mins by flow cytometry analysis ( Rvb = 6.54%); assay type: functional; parameters: scale not given: the % may be the effect or the level left; details: 0.5 h
Mus musculus [3] = species on record: Mus musculus; test: Antifibrotic activity against bleomycin-induced C57BL/6 mouse lung fibrosis model assessed as reduction in CD11c+MHC II+ in dendritic cells in lung incubated for 30 mins by flow cytometry analysis ( Rvb = 23.67 %); assay type: functional; parameters: scale not given: the % may be the effect or the level left; details: 0.5 h
A549 [4] = test: Inhibition of cell migration in TGF-beta1 induced human A549 cells measured for 24 hrs by contrast-phase microscopic analysis; assay type: functional, cell-based
A549 [5] = test: Induction of morphological changes in TGF-beta1 induced human A549 cells assessed as appearance of spindle shape cells at 200 nM measured for 24 hrs by phase contrast microscopy analysis; assay type: functional, cell-based

Which IC50 (NIH3T3) does the source give for `O=C(C1=Cc2ccccc2S1(=O)=O)N1CCN(Cc2ccc(S(=O)(=O)C(F)(F)F)cc2)CC1` here?
Its IC50 is 1790 nM.

How did the IC50 (NIH3T3) turn out when `O=C(Cc1ccccc1[N+](=O)[O-])NC1CCN(C(=O)C2=Cc3ccccc3S2(=O)=O)CC1` was run?
Its IC50 is over 10000 nM.

For `O=C(NC1CCN(C(=O)C2=Cc3ccccc3S2(=O)=O)CC1)c1cccc(Cl)c1`, which IC50 (NIH3T3) is on record?
Its IC50 is 6760 nM.

For `O=C(C1=Cc2ccccc2S1(=O)=O)N1CCN(S(=O)(=O)c2cccs2)CC1`, which IC50 (NIH3T3) is on record?
The IC50 was 3870 nM.

`Cc1noc(C)c1S(=O)(=O)N1CCN(C(=O)C2=Cc3ccccc3S2(=O)=O)CC1` was tested. Which IC50 (NIH3T3) did it give?
The IC50 was 1470 nM.

How did the IC50 (NIH3T3) turn out when `CC(C)(C)OC(=O)n1cc(CN2CCN(C(=O)C3=Cc4ccccc4S3(=O)=O)CC2)c2ccccc21` was run?
Its IC50 is 5120 nM.

`O=C(C1=Cc2ccccc2S1(=O)=O)N1CCN(S(=O)(=O)c2ccc3c(c2)CCO3)CC1` was tested. Which IC50 (NIH3T3) did it give?
The IC50 was 8890 nM.

How did the IC50 (NIH3T3) turn out when `COS(=O)(=O)c1ccc(CN2CCN(C(=O)C3=Cc4ccccc4S3(=O)=O)CC2)cc1` was run?
Its IC50 is 930 nM.

How did the IC50 (NIH3T3) turn out when `O=C(C1=Cc2ccccc2S1(=O)=O)N1CCN(C(=O)c2cccnc2)CC1` was run?
The IC50 was 8450 nM.

Which IC50 (NIH3T3) does the source give for `O=C(C1=Cc2ccccc2S1(=O)=O)N1CCN(Cc2ccc(C(F)(F)F)cc2)CC1` here?
Its IC50 is 1460 nM.

`O=C(C1=Cc2ccccc2S1(=O)=O)N1CCN(C(=O)c2cc(F)c(F)cc2F)CC1` was tested. Which IC50 (NIH3T3) did it give?
Its IC50 is 870 nM.

How did the IC50 (NIH3T3) turn out when `O=C(C1=Cc2ccccc2S1(=O)=O)N1CCN(Cc2ccc3ccccc3c2)CC1` was run?
Its IC50 is 6780 nM.

With `COc1ccc(CN2CCN(C(=O)C3=Cc4ccccc4S3(=O)=O)CC2)cc1` as the compound, how does the IC50 (NIH3T3) read?
Its IC50 is 1780 nM.

For `O=C(C1=Cc2ccccc2S1(=O)=O)N1CCN(Cc2c(F)c(F)c(F)c(F)c2F)CC1`, which IC50 (NIH3T3) is on record?
The IC50 was 1290 nM.

Which IC50 (NIH3T3) does the source give for `O=C(NC1CCN(C(=O)C2=Cc3ccccc3S2(=O)=O)CC1)c1ccc(Cl)cc1` here?
The IC50 was 6260 nM.

With `O=C(CC1CCCCC1)NC1CCN(C(=O)C2=Cc3ccccc3S2(=O)=O)CC1` as the compound, how does the IC50 (NIH3T3) read?
Its IC50 is over 10000 nM.

How did the IC50 (NIH3T3) turn out when `COc1cc(CN2CCN(C(=O)C3=Cc4ccccc4S3(=O)=O)CC2)cc(OC)c1` was run?
The IC50 was 1110 nM.

With `O=C(Cc1cccc(C2CC2)c1)N1CCN(C(=O)C2=Cc3ccccc3S2(=O)=O)CC1` as the compound, how does the IC50 (NIH3T3) read?
The IC50 was 1750 nM.

How did the IC50 (NIH3T3) turn out when `O=C(C1=Cc2ccccc2S1(=O)=O)N1CCN(C(=O)c2cc3ccccc3o2)CC1` was run?
Its IC50 is 1220 nM.

For `CN(C)c1ccc(CC(=O)NC2CCN(C(=O)C3=Cc4ccccc4S3(=O)=O)CC2)cc1`, which IC50 (NIH3T3) is on record?
The IC50 was over 10000 nM.

For `O=C(Cc1cccc2c1CCO2)NC1CCN(C(=O)C2=Cc3ccccc3S2(=O)=O)CC1`, which IC50 (NIH3T3) is on record?
Its IC50 is 3980 nM.

`Cc1cccc(CN2CCN(C(=O)C3=Cc4ccccc4S3(=O)=O)CC2)c1` was tested. Which IC50 (NIH3T3) did it give?
The IC50 was 2550 nM.

How did the IC50 (NIH3T3) turn out when `O=C(C1=Cc2ccccc2S1(=O)=O)N1CCN(Cc2ccccc2F)CC1` was run?
The IC50 was 1000 nM.

`O=C(C1=Cc2ccccc2S1(=O)=O)N1CCN(Cc2ccc(C(F)(F)F)o2)CC1` was tested. Which IC50 (NIH3T3) did it give?
Its IC50 is 1900 nM.

How did the IC50 (NIH3T3) turn out when `O=C(C1=Cc2ccccc2S1(=O)=O)N1CCN(C(=O)c2ccccn2)CC1` was run?
The IC50 was 6020 nM.

For `O=C(CC1CCCC1)NC1CCN(C(=O)C2=Cc3ccccc3S2(=O)=O)CC1`, which IC50 (NIH3T3) is on record?
The IC50 was over 10000 nM.

`COC(=O)c1ccc2c(c1)NC(=O)/C2=C(\Nc1ccc(N(C)C(=O)CN2CCN(C)CC2)cc1)c1ccccc1` [NINTEDANIB] was tested. Which Activity (Mus musculus [1]) did it give?
Its Activity is 12.36%.

What about the Activity (Mus musculus [2]) of the same compound?
The Activity was 3.55%.

And the Activity (Mus musculus [3])?
Its Activity is 20.61%.

And the IC50 (NIH3T3)?
Its IC50 is 2410 nM.

For `COC(=O)c1cccc(CN2CCN(C(=O)C3=Cc4ccccc4S3(=O)=O)CC2)c1`, which IC50 (NIH3T3) is on record?
Its IC50 is 1400 nM.

Which IC50 (NIH3T3) does the source give for `O=C(C1=Cc2ccccc2S1(=O)=O)N1CCN(Cc2ccc(Cl)cc2)CC1` here?
The IC50 was 2010 nM.

How did the IC50 (NIH3T3) turn out when `O=C(C1=Cc2ccccc2S1(=O)=O)N1CCN(Cc2ccc(-c3ccccc3)cc2)CC1` was run?
The IC50 was 6470 nM.

Which IC50 (NIH3T3) does the source give for `O=C(C1=Cc2ccccc2S1(=O)=O)N1CCN(Cc2cccc(C(F)(F)F)c2)CC1` here?
Its IC50 is 1320 nM.

With `O=C(CN1CCOCC1)NC1CCN(C(=O)C2=Cc3ccccc3S2(=O)=O)CC1` as the compound, how does the IC50 (NIH3T3) read?
Its IC50 is 4850 nM.

For `O=C(C1=Cc2ccccc2S1(=O)=O)N1CCN(C(=O)c2scnc2Br)CC1`, which IC50 (NIH3T3) is on record?
The IC50 was 810 nM.

Which IC50 (NIH3T3) does the source give for `COC(=O)c1ccc(CN2CCN(C(=O)C3=Cc4ccccc4S3(=O)=O)CC2)cc1OC` here?
Its IC50 is 1240 nM.

Which IC50 (NIH3T3) does the source give for `O=C(C1=Cc2ccccc2S1(=O)=O)N1CCN(S(=O)(=O)c2cc(F)cc(F)c2)CC1` here?
Its IC50 is 1450 nM.

`O=C(C1=Cc2ccccc2S1(=O)=O)N1CCN(S(=O)(=O)C2CCCCC2)CC1` was tested. Which IC50 (NIH3T3) did it give?
The IC50 was 8920 nM.

How did the IC50 (NIH3T3) turn out when `O=C(C1=Cc2ccccc2S1(=O)=O)N1CCN(C(=O)c2ccc(F)cn2)CC1` was run?
The IC50 was 2090 nM.

`Cc1ccc(CN2CCN(C(=O)C3=Cc4ccccc4S3(=O)=O)CC2)cc1` was tested. Which IC50 (NIH3T3) did it give?
Its IC50 is 1660 nM.

With `O=C(C1=Cc2ccccc2S1(=O)=O)N1CCN(C(=O)c2ccc(N3CCOCC3)nc2)CC1` as the compound, how does the IC50 (NIH3T3) read?
Its IC50 is 2490 nM.

`COC(=O)c1ccc(CN2CCN(C(=O)C3=Cc4ccccc4S3(=O)=O)CC2)cc1` was tested. Which IC50 (NIH3T3) did it give?
The IC50 was 630 nM.

Which IC50 (NIH3T3) does the source give for `CC(C)(C)OC(=O)N1CCOC(C(=O)N2CCN(C(=O)C3=Cc4ccccc4S3(=O)=O)CC2)C1` (centres undefined) here?
Its IC50 is 5230 nM.

Which IC50 (NIH3T3) does the source give for `O=C(C1=Cc2ccccc2S1(=O)=O)N1CCN(Cc2cccc(F)c2)CC1` here?
The IC50 was 950 nM.

How did the IC50 (NIH3T3) turn out when `O=C(C1=Cc2ccccc2S1(=O)=O)N1CCN(Cc2cc(F)c(F)c(F)c2F)CC1` was run?
Its IC50 is 1260 nM.

For `O=C(C1=Cc2ccccc2S1(=O)=O)N1CCN(C(=O)c2cccnc2N2CCOCC2)CC1`, which IC50 (NIH3T3) is on record?
Its IC50 is 3420 nM.

What does the source list for `O=[N+]([O-])c1ccc2c(c1)S(=O)(=O)C=C2`?
inhibition (A549 [4]): Active; Activity (A549 [5]): Active; IC50 (NIH3T3): 1180 nM

With `O=C(Cc1cccc([N+](=O)[O-])c1)NC1CCN(C(=O)C2=Cc3ccccc3S2(=O)=O)CC1` as the compound, how does the IC50 (NIH3T3) read?
Its IC50 is over 10000 nM.

How did the IC50 (NIH3T3) turn out when `COC(=O)c1sccc1S(=O)(=O)N1CCN(C(=O)C2=Cc3ccccc3S2(=O)=O)CC1` was run?
Its IC50 is 4480 nM.

`O=C(C1=Cc2ccccc2S1(=O)=O)N1CCN(S(=O)(=O)c2ccc3ccccc3c2)CC1` was tested. Which IC50 (NIH3T3) did it give?
The IC50 was over 10000 nM.

`Cc1nc(C)c(C(=O)NC2CCN(C(=O)C3=Cc4ccccc4S3(=O)=O)CC2)nc1C` was tested. Which IC50 (NIH3T3) did it give?
Its IC50 is 2130 nM.

Source: ChEMBL document CHEMBL5352461, “Discovery of the novel Benzo[b]thiophene 1,1-dioxide derivatives as a potent STAT3 inhibitor against idiopathic pulmonary fibrosis” (Eur J Med Chem, 2023)
